# From patent US7943176B2, “Oral dosage form for propiverine or its pharmaceutically acceptable salts with an extended release of the active ingredient” (Apogepha Arzneimittel GmbH, priority 2001, dated 2011)
# Several values for one entry are separate records, joined by “and”; a condition that tells them apart may be missing. Equal values may be shown once. Where a name gives a salt, the structure may show the parent alone. Read-outs that look alike come from different tables or passages of the source.
# Assays:
# [1] = water, 25° C.; cited from earlier work
# [2] = Distribution coefficient of propiverine-hydrochloride (1-octanol/water, 25° C.); assay type: physicochemical
# Experimental: (§1) The distribution coefficient and the solubility of propiverine-hydrochloride in dependence of the pH value are known (determination of the amount of propiverine in the aqueous phase via HPLC).
# Distribution coefficient of propiverine-hydrochloride (1-octanol/water, 25° C.)
# [3] = Solubility of propiverine-hydrochloride in water; assay type: physicochemical; conditions: aqueous buffer
# From the text: as §1
# Solubility of propiverine-hydrochloride in water
# [4] = water, pH=4.0-8.0; cited from earlier work
structure (smiles),measurement,setting,value
"CCCOC(C(=O)OC1CCN(C)CC1)(c1ccccc1)c1ccccc1 [propiverine, 2,2-diphenyl-2-(1-propoxy)acetic acid(1-methyl-piperid-4-yl)ester]",pKa value,[1],7.35±0.1
CCCOC(C(=O)OC1CCN(C)CC1)(c1ccccc1)c1ccccc1 [propiverine-hydrochloride],Log [K],[2]; pH 1.0,1.3
same,K (distribution coefficient),"[2]; pH 1.0, mean of three",22
same,Log [K],[2]; pH 5.0,1.1
same,K (distribution coefficient),"[2]; pH 5.0, mean of three",13
same,Log [K],[2]; pH 6.0,2.4
same,K (distribution coefficient),"[2]; pH 6.0, mean of three",227
same,Log [K],[2]; pH 6.5,2.9
same,K (distribution coefficient),"[2]; pH 6.5, mean of three",884
same,Log [K],[2]; pH 6.8,3.8
same,K (distribution coefficient),"[2]; pH 6.8, mean of three",6904
same,Log [K],[2]; pH 7.0,4.0
same,K (distribution coefficient),"[2]; pH 7.0, mean of three",10346
same,Log [K],[2]; pH 7.2,4.2
same,K (distribution coefficient),"[2]; pH 7.2, mean of three",15438
same,Log [K],[2]; pH 7.5,4.4
same,K (distribution coefficient),"[2]; pH 7.5, mean of three",26068
same,Log [K],[2]; pH 8.0,4.7
same,K (distribution coefficient),"[2]; pH 8.0, mean of three",52372
same,solubility,"[3]; pH 5.8, 24 ° C.",> 200 mg/mL
same,solubility,"[3]; pH 5.8, 37 ° C.",368 mg/mL
same,solubility,"[3]; pH 6.0, 24 ° C.",209 mg/mL
same,solubility,"[3]; pH 7.0, 24 ° C.",1.2 mg/mL
same,solubility,"[3]; pH 7.2, 24 ° C.",1.1 mg/mL
"CCCOC(C(=O)OC1CC[N+](C)([O-])CC1)(c1ccccc1)c1ccccc1 (stereo not shown) [Propiverine-N-oxide, propiverine-N-oxide]",solubility,[4],> 127 mg/mL and > 99 mg/mL
